Source: ChEMBL document CHEMBL5291721, “A preclinical secondary pharmacology resource illuminates target-adverse drug reaction associations of marketed drugs” (Nat Commun, 2023)

Tests used:
[1] = molecular target: T1, Muscarinic acetylcholine receptor M1 (Homo sapiens, UniProt P11229); format: functional, cell-based
T1 sequence (P11229 whole entry): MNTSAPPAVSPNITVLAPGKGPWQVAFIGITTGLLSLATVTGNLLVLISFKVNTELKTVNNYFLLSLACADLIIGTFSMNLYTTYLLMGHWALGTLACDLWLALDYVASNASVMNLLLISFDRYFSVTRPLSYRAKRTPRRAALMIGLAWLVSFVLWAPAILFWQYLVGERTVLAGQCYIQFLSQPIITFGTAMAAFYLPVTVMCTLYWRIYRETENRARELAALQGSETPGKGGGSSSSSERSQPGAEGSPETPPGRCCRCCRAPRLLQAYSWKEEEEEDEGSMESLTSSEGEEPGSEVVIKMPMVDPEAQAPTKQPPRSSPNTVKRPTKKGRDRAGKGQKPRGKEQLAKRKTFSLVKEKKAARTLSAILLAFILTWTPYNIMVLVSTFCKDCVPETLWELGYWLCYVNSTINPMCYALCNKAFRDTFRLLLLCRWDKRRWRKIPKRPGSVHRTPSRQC

[2] = molecular target: T1, Muscarinic acetylcholine receptor M1; format: functional, cell-based; remark: listed apart in the source
D(1B) dopamine receptor = D(1B) dopamine receptor (Homo sapiens, UniProt P21918)
Chain of D(1B) dopamine receptor (P21918 whole entry): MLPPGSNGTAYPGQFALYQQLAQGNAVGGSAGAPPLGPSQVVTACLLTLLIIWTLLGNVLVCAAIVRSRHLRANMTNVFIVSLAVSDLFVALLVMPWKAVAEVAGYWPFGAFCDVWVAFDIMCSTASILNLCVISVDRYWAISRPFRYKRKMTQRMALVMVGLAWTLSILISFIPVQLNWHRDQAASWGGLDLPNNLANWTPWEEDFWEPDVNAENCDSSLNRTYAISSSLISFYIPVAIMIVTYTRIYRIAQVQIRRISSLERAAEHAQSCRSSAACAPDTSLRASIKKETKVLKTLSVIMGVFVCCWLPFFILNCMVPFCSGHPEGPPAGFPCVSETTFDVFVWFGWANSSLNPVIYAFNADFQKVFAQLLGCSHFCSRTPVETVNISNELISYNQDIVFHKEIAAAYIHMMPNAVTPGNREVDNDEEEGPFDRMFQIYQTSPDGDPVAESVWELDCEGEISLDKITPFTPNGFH

[3] = molecular target: 5-hydroxytryptamine receptor 2B (Homo sapiens, UniProt P41595)
Chain of 5-hydroxytryptamine receptor 2B (P41595 whole entry): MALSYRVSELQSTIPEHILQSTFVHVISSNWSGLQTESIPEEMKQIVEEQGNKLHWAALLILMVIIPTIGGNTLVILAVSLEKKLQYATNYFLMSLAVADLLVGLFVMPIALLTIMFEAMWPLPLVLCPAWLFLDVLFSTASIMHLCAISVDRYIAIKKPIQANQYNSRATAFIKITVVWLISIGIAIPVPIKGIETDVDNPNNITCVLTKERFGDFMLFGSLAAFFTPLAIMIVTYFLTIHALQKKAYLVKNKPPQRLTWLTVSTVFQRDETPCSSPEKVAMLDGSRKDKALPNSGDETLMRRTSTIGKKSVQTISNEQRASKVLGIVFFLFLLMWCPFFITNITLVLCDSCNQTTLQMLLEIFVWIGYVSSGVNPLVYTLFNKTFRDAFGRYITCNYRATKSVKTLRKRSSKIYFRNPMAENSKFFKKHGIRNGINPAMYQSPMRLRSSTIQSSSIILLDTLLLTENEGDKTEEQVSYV

[4] = molecular target: T2, Prostaglandin G/H synthase 1 (Rattus norvegicus, UniProt Q63921); format: functional
T2 sequence (Q63921 whole entry): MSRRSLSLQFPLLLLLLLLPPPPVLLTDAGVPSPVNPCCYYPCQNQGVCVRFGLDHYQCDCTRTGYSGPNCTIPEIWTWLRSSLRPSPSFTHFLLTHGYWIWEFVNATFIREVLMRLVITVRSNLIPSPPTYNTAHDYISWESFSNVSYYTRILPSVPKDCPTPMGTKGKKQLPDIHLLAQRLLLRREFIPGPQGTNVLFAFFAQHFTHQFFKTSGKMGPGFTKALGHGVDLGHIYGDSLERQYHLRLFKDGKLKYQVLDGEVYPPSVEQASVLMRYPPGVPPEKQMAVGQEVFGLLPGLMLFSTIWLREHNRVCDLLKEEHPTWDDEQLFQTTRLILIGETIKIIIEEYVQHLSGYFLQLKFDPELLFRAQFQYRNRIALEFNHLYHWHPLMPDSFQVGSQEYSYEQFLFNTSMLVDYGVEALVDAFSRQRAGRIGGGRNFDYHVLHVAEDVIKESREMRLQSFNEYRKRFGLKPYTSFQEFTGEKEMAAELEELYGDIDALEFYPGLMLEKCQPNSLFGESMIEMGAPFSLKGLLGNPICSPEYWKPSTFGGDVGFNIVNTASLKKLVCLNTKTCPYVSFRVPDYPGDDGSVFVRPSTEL

D(1A) dopamine receptor = D(1A) dopamine receptor (Homo sapiens, UniProt P21728)
Chain of D(1A) dopamine receptor (P21728 whole entry): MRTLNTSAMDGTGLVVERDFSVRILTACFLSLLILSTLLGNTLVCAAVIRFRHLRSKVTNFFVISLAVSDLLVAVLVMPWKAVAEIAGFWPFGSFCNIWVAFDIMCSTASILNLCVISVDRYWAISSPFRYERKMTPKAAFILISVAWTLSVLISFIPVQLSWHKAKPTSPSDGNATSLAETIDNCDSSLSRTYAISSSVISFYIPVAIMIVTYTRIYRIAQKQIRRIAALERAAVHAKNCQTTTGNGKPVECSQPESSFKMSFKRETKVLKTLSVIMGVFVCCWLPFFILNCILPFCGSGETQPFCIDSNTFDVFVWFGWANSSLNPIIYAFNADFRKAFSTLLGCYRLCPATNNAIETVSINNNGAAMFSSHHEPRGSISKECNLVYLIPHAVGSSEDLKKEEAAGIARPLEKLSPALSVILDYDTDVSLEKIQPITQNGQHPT

[5] = molecular target: Voltage-dependent L-type calcium channel subunit alpha-1C (Homo sapiens, UniProt Q13936); format: functional, cell-based
Thromboxane A2 receptor [6] = molecular target: T3, Thromboxane A2 receptor (Homo sapiens, UniProt P21731); format: functional
T3 sequence (P21731 whole entry): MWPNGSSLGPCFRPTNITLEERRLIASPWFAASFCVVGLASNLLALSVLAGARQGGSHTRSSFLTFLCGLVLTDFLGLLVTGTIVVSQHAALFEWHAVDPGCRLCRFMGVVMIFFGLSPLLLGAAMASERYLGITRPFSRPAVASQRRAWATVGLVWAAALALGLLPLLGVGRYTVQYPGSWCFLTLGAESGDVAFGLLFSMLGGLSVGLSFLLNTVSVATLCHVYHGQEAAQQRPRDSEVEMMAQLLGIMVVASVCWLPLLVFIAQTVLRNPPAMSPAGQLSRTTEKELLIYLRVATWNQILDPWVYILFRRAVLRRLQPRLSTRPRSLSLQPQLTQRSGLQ

[7] = molecular target: Epidermal growth factor receptor (Homo sapiens, UniProt P00533); format: functional
Chain of Epidermal growth factor receptor (P00533 whole entry): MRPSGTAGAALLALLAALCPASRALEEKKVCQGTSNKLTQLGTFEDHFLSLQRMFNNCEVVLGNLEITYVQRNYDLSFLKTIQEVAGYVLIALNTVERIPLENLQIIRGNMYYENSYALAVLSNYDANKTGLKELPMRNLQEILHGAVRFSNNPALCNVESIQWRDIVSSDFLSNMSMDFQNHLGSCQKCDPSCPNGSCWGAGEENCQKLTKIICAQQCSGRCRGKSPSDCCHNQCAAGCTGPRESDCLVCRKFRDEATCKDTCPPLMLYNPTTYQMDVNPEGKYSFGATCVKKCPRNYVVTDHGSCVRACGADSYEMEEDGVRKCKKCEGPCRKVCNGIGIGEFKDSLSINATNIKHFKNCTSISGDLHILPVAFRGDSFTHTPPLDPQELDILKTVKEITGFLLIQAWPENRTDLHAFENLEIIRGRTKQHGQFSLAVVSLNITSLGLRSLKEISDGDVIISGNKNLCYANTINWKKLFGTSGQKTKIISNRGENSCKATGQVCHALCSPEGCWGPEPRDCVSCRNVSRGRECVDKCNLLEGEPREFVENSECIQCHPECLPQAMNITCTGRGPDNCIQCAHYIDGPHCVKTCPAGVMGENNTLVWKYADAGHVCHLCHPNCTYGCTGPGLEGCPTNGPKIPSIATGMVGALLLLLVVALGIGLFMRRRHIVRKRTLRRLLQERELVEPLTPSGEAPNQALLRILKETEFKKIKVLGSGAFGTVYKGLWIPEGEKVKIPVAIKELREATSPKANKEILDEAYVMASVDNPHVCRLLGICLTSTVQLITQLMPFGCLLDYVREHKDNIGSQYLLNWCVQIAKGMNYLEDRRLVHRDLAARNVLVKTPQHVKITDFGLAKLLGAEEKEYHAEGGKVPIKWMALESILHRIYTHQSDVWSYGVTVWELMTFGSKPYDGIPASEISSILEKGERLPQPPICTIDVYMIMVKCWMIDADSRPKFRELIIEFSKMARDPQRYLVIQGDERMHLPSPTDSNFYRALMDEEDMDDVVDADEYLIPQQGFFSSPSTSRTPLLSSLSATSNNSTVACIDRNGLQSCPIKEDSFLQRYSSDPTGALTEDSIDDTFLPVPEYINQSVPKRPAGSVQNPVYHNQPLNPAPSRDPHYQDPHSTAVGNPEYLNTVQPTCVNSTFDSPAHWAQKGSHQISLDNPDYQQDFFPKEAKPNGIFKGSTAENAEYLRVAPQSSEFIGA

Estrogen receptor [8] = molecular target: T4, Estrogen receptor (Homo sapiens, UniProt P03372); format: functional
T4 sequence (P03372 whole entry): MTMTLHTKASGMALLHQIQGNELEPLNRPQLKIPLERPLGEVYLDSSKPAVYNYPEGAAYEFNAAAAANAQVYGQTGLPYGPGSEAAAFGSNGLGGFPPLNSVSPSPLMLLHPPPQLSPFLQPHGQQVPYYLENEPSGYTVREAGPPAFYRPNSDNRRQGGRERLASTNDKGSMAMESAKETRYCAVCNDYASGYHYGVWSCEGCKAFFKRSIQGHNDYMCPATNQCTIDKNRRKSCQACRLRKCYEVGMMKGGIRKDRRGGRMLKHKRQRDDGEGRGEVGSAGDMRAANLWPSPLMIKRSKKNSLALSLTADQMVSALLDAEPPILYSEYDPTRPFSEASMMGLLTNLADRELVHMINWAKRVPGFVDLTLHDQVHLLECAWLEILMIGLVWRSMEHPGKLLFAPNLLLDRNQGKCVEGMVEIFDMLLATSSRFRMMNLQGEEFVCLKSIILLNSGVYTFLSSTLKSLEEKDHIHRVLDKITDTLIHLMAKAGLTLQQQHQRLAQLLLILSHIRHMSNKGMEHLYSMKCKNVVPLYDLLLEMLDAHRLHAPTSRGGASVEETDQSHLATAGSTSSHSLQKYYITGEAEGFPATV

Thromboxane A2 receptor [9] = molecular target: T3, Thromboxane A2 receptor; format: functional, cell-based
Estrogen receptor [10] = molecular target: T4, Estrogen receptor; format: functional; remark: listed apart in the source
[11] = molecular target: Vascular endothelial growth factor receptor 2 (Homo sapiens, UniProt P35968); format: functional
Chain of Vascular endothelial growth factor receptor 2 (P35968 whole entry): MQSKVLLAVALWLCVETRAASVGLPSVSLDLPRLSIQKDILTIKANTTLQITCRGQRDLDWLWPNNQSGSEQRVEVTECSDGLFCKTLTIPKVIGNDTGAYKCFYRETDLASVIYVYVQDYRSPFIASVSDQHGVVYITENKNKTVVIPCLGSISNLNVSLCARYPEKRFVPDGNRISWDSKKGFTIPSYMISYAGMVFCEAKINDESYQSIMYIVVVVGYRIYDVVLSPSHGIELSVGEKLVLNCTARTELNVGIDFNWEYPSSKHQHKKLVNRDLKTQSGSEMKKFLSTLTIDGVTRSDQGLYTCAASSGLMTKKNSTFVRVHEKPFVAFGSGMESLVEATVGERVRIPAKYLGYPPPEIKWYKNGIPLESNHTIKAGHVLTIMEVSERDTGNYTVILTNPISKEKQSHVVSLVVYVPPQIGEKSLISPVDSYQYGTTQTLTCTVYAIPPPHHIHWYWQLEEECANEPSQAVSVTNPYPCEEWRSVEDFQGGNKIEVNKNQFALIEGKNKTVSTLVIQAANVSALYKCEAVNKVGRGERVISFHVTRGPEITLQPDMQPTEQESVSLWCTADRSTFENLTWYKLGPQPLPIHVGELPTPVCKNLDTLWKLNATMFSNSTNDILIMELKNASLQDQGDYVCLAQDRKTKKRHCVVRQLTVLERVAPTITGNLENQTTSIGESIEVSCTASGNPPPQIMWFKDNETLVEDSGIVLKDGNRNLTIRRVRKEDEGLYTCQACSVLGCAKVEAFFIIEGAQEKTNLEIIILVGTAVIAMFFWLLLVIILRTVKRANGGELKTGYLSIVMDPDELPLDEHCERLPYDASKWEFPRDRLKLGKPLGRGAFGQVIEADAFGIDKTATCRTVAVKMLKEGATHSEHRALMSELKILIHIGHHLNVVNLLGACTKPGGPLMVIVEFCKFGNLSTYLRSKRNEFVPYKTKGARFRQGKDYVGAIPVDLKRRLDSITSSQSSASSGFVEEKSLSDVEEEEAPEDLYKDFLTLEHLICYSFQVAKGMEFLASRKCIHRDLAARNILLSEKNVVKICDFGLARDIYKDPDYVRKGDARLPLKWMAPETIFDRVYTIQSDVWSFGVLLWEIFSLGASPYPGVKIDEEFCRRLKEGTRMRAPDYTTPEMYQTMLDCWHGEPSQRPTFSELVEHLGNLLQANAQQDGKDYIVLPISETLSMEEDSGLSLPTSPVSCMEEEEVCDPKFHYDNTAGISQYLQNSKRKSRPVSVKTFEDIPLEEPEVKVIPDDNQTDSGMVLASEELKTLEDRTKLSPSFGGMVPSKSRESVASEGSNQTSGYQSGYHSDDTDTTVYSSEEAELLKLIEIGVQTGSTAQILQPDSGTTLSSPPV
Further: assay procedure not described here.

## C[N+]1(C)CCC(=C(c2ccccc2)c2ccccc2)CC1
[1]
  AC50: > 30 µM
[2]
  AC50: 0.12 µM

## O=C(/C=C/c1cccc(S(=O)(=O)Nc2ccccc2)c1)NO [BELINOSTAT]
D(1B) dopamine receptor
  AC50: > 10 µM

## CC(Cc1cccc(C(F)(F)F)c1)NCCOC(=O)c1ccccc1 (stereo not given) [BENFLUOREX]
[3]
  AC50: 0.933 µM

## CC(O)(CS(=O)(=O)c1ccc(F)cc1)C(=O)Nc1ccc(C#N)c(C(F)(F)F)c1 (stereo not given) [BICALUTAMIDE]
[4]
  AC50: > 30 µM

## CC(=O)O[C@]1(C(C)=O)CC[C@H]2[C@@H]3C=C(Cl)C4=CC(=O)[C@@H]5C[C@@H]5[C@]4(C)[C@H]3CC[C@@]21C [CYPROTERONE ACETATE]
[4]
  AC50: > 30 µM

## CNCCc1ccc(OC(=O)C(C)C)c(OC(=O)C(C)C)c1 [IBOPAMINE]
D(1A) dopamine receptor
  AC50: > 30 µM

## CN(C)CCCN1c2ccccc2CCc2ccccc21 [IMIPRAMINE]
D(1B) dopamine receptor
  AC50: 8.33 µM

## Cc1cccc(C)c1NC(=O)CC12CCCN1CCC2 [PILSICAINIDE]
[5]
  AC50: > 50 µM

## CC(C)c1cccc(C(C)C)c1O [PROPOFOL]
Thromboxane A2 receptor [6]
  AC50: > 30 µM
[7]
  AC50: > 30 µM
Estrogen receptor [8]
  AC50: > 30 µM
Thromboxane A2 receptor [9]
  AC50: > 30 µM
Estrogen receptor [10]
  AC50: > 30 µM
[11]
  AC50: > 30 µM
